# Tested on: E6/E7^LOW human hepatocytes
# Experiment: Bile secretion, CDFDA staining
# Format: cell-based
# Settings: p<0.05, n=4
# Method: Quantification of Apoptotic index was performed using DeadEnd™ fluorometric TUNEL System (Promega) according to manufacturer directions. Briefly, cells were treated with TC20 concentrations of compounds dissolved in culture medium for 24 hours, and subsequently fixed in 4% Paraformaldehyde (PFA). Cells were then permeabilized and exposed to fluorescein-12-dUTP and terminal deoxynucleotidyl transferase (TdT). The reaction was subsequently stopped and the cells counterstained with 1 μg/mL Hoechst 33258. Apoptotic cells were positive for green fluorescence in the nucleus. Percentage apoptosis was defined as the number of TUNEL positive nuclei normalized to Hoechst 33258 positive nuclei. Quantification of Steatosis was performed using HCS LipidTOX™ Phospholipidosis and Steatosis Detection Kit (ThermoFisher). […] Quantification of Bile Secretion was performed using 5(6)-carboxy-2′,7′-dichlorofluorescein diacetate (CDFDA) staining. […] All quantifications were made in comparison to cells treated with melatonin as negative control.
# Quantification of Apoptotic index was performed using DeadEnd™ fluorometric TUNEL System (Promega) according to manufacturer directions. […] Apoptotic cells were positive for green fluorescence in the nucleus. […] Quantification of Steatosis was performed using HCS LipidTOX™ Phospholipidosis and Steatosis Detection Kit (ThermoFisher). […]
smiles,measurement,value
Cc1cn([C@H]2C=C[C@@H](CO)O2)c(=O)[nH]c1=O [Stavudine],bile secretion,mild inhibition

# From patent US12631620B2, “Methods of generating organoids for high throughput screening of drugs” (Yissum Research Development Company of the Hebrew …, priority 2019, dated 2026)
